Test [1] concerns the target T1, BRD4(1) (Homo sapiens, UniProt O60885).
T1 construct: N-terminally His-tagged bromodomains (BRD4(1) at 20 nM and BRD4(2) at 100 nM); made in house; host or cells: E. coli BL21(DE3)
The test is described as follows: Inhibition of tetra-acetylated histone H4 binding to individual BET bromodomains (AlphaScreen). The conditions noted are these: His-tagged BRD4(1) 20 nM, biotinylated tetra-acetylated histone H4 peptide, 30 min incubation; read-out: FRET activity BRD4(1). The protocol: Proteins were cloned and overexpressed with a N-terminal 6×His tag, then purified by nickel affinity followed by size exclusion chromatography. Briefly, E. coli BL21(DE3) cells were transformed with a recombinant expression vector encoding N-terminally Nickel affinity tagged bromodomains from Brd2, Brd3, Brd4. Cell cultures were incubated at 37° C. with shaking to the appropriate density and induced overnight with IPTG. The supernatant of lysed cells was loaded onto Ni-IDA column for purification. Eluted protein was pooled, concentrated and further purified by size exclusion chromatography. Fractions representing monomeric protein were pooled, concentrated, aliquoted, and frozen at −80° C. for use in subsequent experiments.
Binding of tetra-acetylated histone H4 peptide (Millipore) and BET bromodomains was confirmed by Amplified Luminescent Proximity Homogenous Assay (AlphaScreen). N-terminally His-tagged bromodomains (BRD4(1) at 20 nM and BRD4(2) at 100 nM) and biotinylated tetra-acetylated histone H4 (10-25 nM) were incubated in the presence of nickel chelate acceptor beads and streptavidin donor beads (PerkinAlmer, 6760000K) added to a final concentration of 2 μg/mL under green light in a white 96 well microtiter plate (Greiner). For inhibition assays, serially diluted compounds were added to the reaction mixtures in a 0.1% final concentrations of DMSO. Final buffer concentrations were 50 mM HEPES, 100 mM NaCl and 0.1% BSA buffer, pH 7.4 and optimized to 30 min incubation time. Assay plates were read at 570 nm on a Synergy H4 Plate Reader (Biotek). IC50 values were determined from a dose response curve.

Test [2] relates to cMYC. As to the kind of experiment: Inhibition of cMYC expression in cancer cell lines (MV4-11, real-time PCR). To be noted: Homo sapiens, read-out: Myc activity. The class given is cell-based. The protocol: MV4-11 cells (CRL-9591) were plated at a density of 2.5×10^4 cells per well in 96 well U-bottom plates and treated with increasing concentrations of test compound or DMSO (0.1%) in IMDM media containing 10% FBS and penicillin/streptomycin, and incubated for 3 h at 37° C. Triplicate wells were used for each concentration. Cells were pelleted by centrifugation and harvested using the mRNA Catcher PLUS kit according to manufacturer's instructions. The eluted mRNA isolated was then used in a one-step quantitative real-time PCR reaction, using components of the RNA UltraSense™ One-Step Kit (Life Technologies) together with Applied Biosystems TaqMan® primer-probes for cMYC and Cyclophilin. Real-time PCR plates were run on a ViiA™7 real time PCR machine (Applied Biosystems), data were analyzed, normalizing the Ct values for cMYC to an internal control, prior to determining the fold expression of each sample, relative to the control.

Test [3] deals with MV4-11 cells. As to the kind of experiment: Inhibition of cell proliferation in cancer cell lines (MV4-11, CellTiter Aqueous One). The class given is cell-based. The conditions noted are these: Homo sapiens, read-out: Proliferation activity. The protocol:
MV4-11 cells (CRL-9591) were plated at a density of 5×10^4 cells per well in 96 well flat bottom plates and treated with increasing concentrations of test compound or DMSO (0.1%) in IMDM media containing 10% FBS and penicillin/streptomycin. Triplicate wells were used for each concentration and a well containing only media was used as a control. Plates were incubated at 37° C., 5% CO2 for 72 h before adding 20 μL of the CellTiter Aqueous One Solution (Promega) to each well and incubating at 37° C., 5% CO2 for an additional 3-4 h. The absorbance was read at 490 nm in a spectrophotometer and the percentage of cell titer relative to DMSO-treated cells was calculated after correcting for background by subtracting the blank well's signal. IC50 values were calculated using the GraphPad Prism software.

[4] abbreviates: MV4-11 cells, 3 h incubation, cMYC mRNA.

Where a name gives a salt, the structure may show the parent alone. Read-outs that look alike come from different tables or passages of the source.

With `CC(=O)Nc1cnc2nc(C)n(Cc3ccccc3)c2c1` [Example 1, N-(1-Benzyl-2-methyl-1H-imidazo[4,5-b]pyridin-6-yl)acetamide], in test [1], the IC50 fell in the range of 3000 to 30000 nM.
For `CC(=O)N(C)c1cnc2nc(C)n(Cc3ccccc3)c2c1` [Example 3, N-(1-Benzyl-2-methyl-1H-imidazo[4,5-b]pyridin-6-yl)—N-methylacetamide], the IC50 was not above 300 nM in test [1]; 3000 to 30000 nM in test [2] (MV4-11, 3 h); 3000 to 30000 nM in test [3] (MV4-11, 72 h).
Consider `C=CC(=O)N(C)c1cnc2nc(C)n(Cc3ccccc3)c2c1` [Example 4, N-(1-Benzyl-2-methyl-1H-imidazo[4,5-b]pyridin-6-yl)-N-methylacrylamide], for which the IC50 in test [1] is not above 300 nM; in test [2] (setting [4]), 300 to 3000 nM; in test [3] (MV4-11 cells, 72 h incubation), 3000 to 30000 nM.
The corresponding values for `Cc1nc2ncc(N(C)C(=O)CCCl)cc2n1Cc1ccccc1` [Example 5, N-(1-Benzyl-2-methyl-1H-imidazo[4,5-b]pyridin-6-yl)-3-chloro-N-methylpropanamide] are 300 to 3000 nM, 3000 to 30000 nM and 3000 to 30000 nM.
With `CCN(C(C)=O)c1cnc2nc(C)n(Cc3ccccc3)c2c1` [Example 6, N-(1-Benzyl-2-methyl-1H-imidazo[4,5-b]pyridin-6-yl)-N-ethylacetamide], the IC50 in test [1] is 300 to 3000 nM; in test [2] (MV4-11, 3 h), 3000 to 30000 nM.
Turning to `C=CC(=O)N(CC)c1cnc2nc(C)n(Cc3ccccc3)c2c1` [Example 7, N-(1-Benzyl-2-methyl-1H-imidazo[4,5-b]pyridin-6-yl)-N-ethylacrylamide], in test [1], the IC50 was 300 to 3000 nM.
Turning to `CN(C(=O)CCCl)c1cnc2c(c1)n(Cc1ccccc1)c(=O)n2C` [Example 10, N-(1-Benzyl-3-methyl-2-oxo-2,3-dihydro-1H-imidazo[4,5-b]pyridin-6-yl)-3-chloro-N-methylpropanamide], the IC50 lay within 3000 to 30000 nM in test [1] and 3000 to 30000 nM in test [3] (MV4-11 cells, 72 h incubation).
With `CC(=O)N(C)c1cnc2c(c1)n(Cc1ccccc1)c(=O)n2C` [Example 11, N-(1-Benzyl-3-methyl-2-oxo-2,3-dihydro-1H-imidazo[4,5-b]pyridin-6-yl)-N-methylacetamide], the IC50 in test [1] is not above 300 nM; in test [2] (setting [4]), 3000 to 30000 nM; in test [3] (MV4-11 cells, 72 h incubation), 3000 to 30000 nM.
With `C=CC(=O)N(C)c1cnc2c(c1)n(Cc1ccccc1)c(=O)n2C` [Example 12, N-(1-Benzyl-3-methyl-2-oxo-2,3-dihydro-1H-imidazo[4,5-b]pyridin-6-yl)-N-methylacrylamide], the IC50 was not above 300 nM in test [1]; 3000 to 30000 nM in test [2] (setting [4]); 3000 to 30000 nM in test [3] (MV4-11 cells, 72 h incubation).
As for `CCN(C(C)=O)c1cnc2c(c1)n(Cc1ccccc1)c(=O)n2C` [Example 13, N-(1-Benzyl-3-methyl-2-oxo-2,3-dihydro-1H-imidazo[4,5-b]pyridin-6-yl)-N-ethylacetamide], in test [1], the IC50 was 300 to 3000 nM.
Still for that read-out and setting: in the case of `C=CC(=O)N(CC)c1cnc2c(c1)n(Cc1ccccc1)c(=O)n2C` [Example 14, N-(1-Benzyl-3-methyl-2-oxo-2,3-dihydro-1H-imidazo[4,5-b]pyridin-6-yl)-N-ethylacrylamide] it was 300 to 3000 nM.
Regarding `C=CC(=O)N(C)c1cnc2nc(N3CCOCC3)n(Cc3ccccc3)c2c1` [Example 16, N-(1-Benzyl-2-morpholino-1H-imidazo[4,5-b]pyridin-6-yl)-N-methylacrylamide], the IC50 was not above 300 nM in test [1]; 3000 to 30000 nM in test [2] (setting [4]); 3000 to 30000 nM in test [3] (MV4-11 cells, 72 h incubation).
On to `C=CC(=O)N(C)c1cnc2nc(N3CCC3)n(Cc3ccccc3)c2c1` [Example 17, N-(2-(Azetidin-1-yl)-1-benzyl-1H-imidazo[4,5-b]pyridin-6-yl)-N-methylacrylamide], for which the IC50 in test [1] was not above 300 nM; in test [2] (MV4-11, 3 h) it was 300 to 3000 nM; in test [3] (MV4-11, 72 h), 300 to 3000 nM.
Take `C=CC(=O)N(C)c1cnc2nc(N(C)C)n(Cc3ccccc3)c2c1` [Example 19, N-(1-Benzyl-2-(dimethylamino)-1H-imidazo[4,5-b]pyridin-6-yl)-N-methylacrylamide]: the IC50 in test [1] is not above 300 nM; in test [2] (setting [4]) it was 300 to 3000 nM; in test [3] (MV4-11 cells, 72 h incubation), 3000 to 30000 nM.
The corresponding values for `C=CC(=O)N(C)c1cnc2nc(NC3CCOCC3)n(Cc3ccccc3)c2c1` [Example 20, N-(1-Benzyl-2-((tetrahydro-2H-pyran-4-yl)amino)-1H-imidazo[4,5-b]pyridin-6-yl)-N-methylacrylamide] are not above 300 nM, 300 to 3000 nM and 300 to 3000 nM.
Taken in the same sequence, the figures for `C=CC(=O)N(C)c1cnc2nc(NC)n(Cc3ccccc3)c2c1` [Example 21, N-(1-Benzyl-2-(methylamino)-1H-imidazo[4,5-b]pyridin-6-yl)-N-methylacrylamide] were not above 300 nM, 300 to 3000 nM and 300 to 3000 nM.
As for `C=CC(=O)N(C)c1cnc2nc(N3CC=CC3)n(Cc3ccccc3)c2c1` [Example 22, N-(1-Benzyl-2-(2,5-dihydro-1H-pyrrol-1-yl)-1H-imidazo[4,5-b]pyridin-6-yl)-N-methylacrylamide hydrochloride], the IC50 in test [1] was not above 300 nM; in test [2] (setting [4]), 300 to 3000 nM; in test [3] (MV4-11 cells, 72 h incubation), 300 to 3000 nM.
For the compound `C=CC(=O)N(C)c1cnc2nc(N3CCCCC3)n(Cc3ccccc3)c2c1` [Example 23, N-(1-Benzyl-2-(piperidin-1-yl)-1H-imidazo[4,5-b]pyridin-6-yl)-N methylacrylamide], the IC50 lay within 300 to 3000 nM in test [1]; 300 to 3000 nM in test [2] (setting [4]); 3000 to 30000 nM in test [3] (MV4-11 cells, 72 h incubation).
For `C=CC(=O)N(C)c1cnc2nc(N3C4CCC3CC(O)C4)n(Cc3ccccc3)c2c1` (centres unmarked) [Example 24, N-(1-Benzyl-2-(3-hydroxy-8-azabicyclo[3.2.1]octan-8-yl)-1H-imidazo[4,5-b]pyridin-6-yl)-N-methylacrylamide], the IC50 is not above 300 nM in test [1]; 300 to 3000 nM in test [2] (MV4-11, 3 h); 3000 to 30000 nM in test [3] (MV4-11, 72 h).
For the compound `C=CC(=O)N(C)c1cnc2nc(N3CC[C@H](CO)C3)n(Cc3ccccc3)c2c1` [Example 25, (S)—N-(1-Benzyl-2-(3-(hydroxymethyl)pyrrolidin-1-yl)-1H-imidazo[4,5-b]pyridin-6-yl)-N-methylacrylamide], the IC50 in test [1] is not above 300 nM; in test [2] (setting [4]), less than 300 nM; in test [3] (MV4-11 cells, 72 h incubation) it was 300 to 3000 nM.
Taken in the same sequence, the figures for `C=CC(=O)N(C)c1cnc2nc(N3CC(CO)C3)n(Cc3ccccc3)c2c1` [Example 26, N-(1-Benzyl-2-(3-(hydroxymethyl)azetidin-1-yl)-1H-imidazo[4,5-b]pyridin-6-yl)-N-methylacrylamide] were not above 300 nM, 300 to 3000 nM and 3000 to 30000 nM.
Regarding `C=CC(=O)N(C)c1cnc2nc(N3C[C@H]4CN(C)C[C@H]4C3)n(Cc3ccccc3)c2c1` [Example 27, N-(1-Benzyl-2-((3aR,6aS)-5-methylhexahydropyrrolo[3,4-c]pyrrol-2(1H)-yl)-1H-imidazo[4,5-b]pyridin-6-yl)-N-methylacrylamide], the IC50 in test [1] is 300 to 3000 nM; in test [2] (setting [4]), 3000 to 30000 nM; in test [3] (MV4-11 cells, 72 h incubation), 3000 to 30000 nM.
For `CCC(=O)N(C)c1cnc2nc(N3CCCC3)n(Cc3ccccc3)c2c1` [Example 28, N-(1-Benzyl-2-(pyrrolidin-1-yl)-1H-imidazo[4,5-b]pyridin-6-yl)-N-methylpropionamide], the IC50 was not above 300 nM in test [1]; 300 to 3000 nM in test [2] (setting [4]); 300 to 3000 nM in test [3] (MV4-11 cells, 72 h incubation).
On to `CN(C(=O)C1CC1)c1cnc2nc(N3CCCC3)n(Cc3ccccc3)c2c1` [Example 29, N-(1-Benzyl-2-(pyrrolidin-1-yl)-1H-imidazo[4,5-b]pyridin-6-yl)-N-methylcyclopropanecarboxamide], for which the IC50 is not above 300 nM in test [1]; 300 to 3000 nM in test [2] (setting [4]); 300 to 3000 nM in test [3] (MV4-11 cells, 72 h incubation).

(Values after US20190263799A1, “1H-IMIDAZO[4,5-B]PYRIDINYL AND 2-OXO-2,3-DIHYDRO-1H-IMIDAZO[4,5-B]PYRIDINYL HETEROCYCLIC BET BROMODOMAIN INHIBITORS” (ZENITH EPIGENETICS LTD., priority 2015, published 2019).)
